# Where a name gives a salt, the structure may show the parent alone.
# Experiments:
# human KDR enzyme = biological target: T1, human KDR enzyme (Homo sapiens, UniProt P35968); experiment: in vitro test of phosphorylation of substrate with the enzyme KDR (scintillation technique); type: biochemical; details: Table 1; unit inferred; read-out: KDR (concentration that inhibits 50% of the kinase activity)
# T1 construct: The cytoplasmic domain of the human KDR enzyme was cloned in the form of a GST fusion; GST; made in house; host or cells: SF21 insect cells (baculovirus, pFastBac)
# T1 sequence (P35968 786-1356 limits assumed): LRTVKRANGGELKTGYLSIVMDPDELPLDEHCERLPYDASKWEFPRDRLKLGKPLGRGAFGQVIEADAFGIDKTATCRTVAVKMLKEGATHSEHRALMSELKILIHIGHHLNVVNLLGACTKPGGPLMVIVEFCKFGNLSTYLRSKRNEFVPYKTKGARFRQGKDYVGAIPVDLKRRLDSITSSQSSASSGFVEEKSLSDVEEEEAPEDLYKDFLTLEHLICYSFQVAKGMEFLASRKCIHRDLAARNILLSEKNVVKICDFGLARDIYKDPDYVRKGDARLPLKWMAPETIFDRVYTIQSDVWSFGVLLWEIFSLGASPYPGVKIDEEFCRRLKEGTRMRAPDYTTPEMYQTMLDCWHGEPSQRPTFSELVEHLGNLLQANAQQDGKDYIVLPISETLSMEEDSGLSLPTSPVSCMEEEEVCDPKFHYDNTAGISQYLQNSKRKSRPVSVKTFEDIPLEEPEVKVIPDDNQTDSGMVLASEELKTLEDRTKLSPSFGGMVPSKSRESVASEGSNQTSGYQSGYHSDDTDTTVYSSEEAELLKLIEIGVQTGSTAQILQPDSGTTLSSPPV
# Protocol: Determination of the Activity of the Compounds—Experimental Protocols 1. KDR
# The inhibitory effect of the compounds is determined in an in vitro test of phosphorylation of substrate with the enzyme KDR via a scintillation technique (96-well plate, NEN).
# The cytoplasmic domain of the human KDR enzyme was cloned in the form of a GST fusion in the pFastBac baculovirus expression vector. The protein was expressed in the SF21 cells and purified to about 60% homogeneity.
# The KDR kinase activity is measured in 20 mM MOPS, 10 mM MgCl2, 10 mM MnCl2, 1 mM DTT, 2.5 mM EGTA, 10 mM b-glycerophosphate, pH=7.2, in the presence of 10 mM MgCl2, 100 μm Na3VO4, 1 mM NaF. 10 μl of the compound are added to 70 μl of kinase buffer containing 100 ng of KDR enzyme at 4° C. The reaction is initiated by adding 20 μl of solution containing 2 μg of substrate (SH2-SH3 fragment of PLCγ expressed in the form of a GST fusion protein), 2 μCi of γ^33P[ATP] and 2 μm of cold ATP. After incubation for 1 hour at 37° C., the reaction is stopped by adding 1 volume (100 μl) of 200 mM EDTA. The incubation buffer is removed, and the wells are washed three times with 300 μl of PBS. The radioactivity in each well is measured using a Top Count NXT radioactivity counter (Packard).
# The background noise is determined by measuring the radioactivity in four different wells containing radioactive ATP and the substrate alone.
# A total activity control is measured in four different wells containing all the reagents (γ^33P—[ATP], KDR and substrate PLCγ), but in the absence of compound.
# The inhibition of the KDR activity with the compound of the invention is expressed as a percentage of inhibition of the control activity determined in the absence of compound.
# Compound SU5614 (Calbiochem) (1 μM) is included in each plate as an inhibition control.
# human Tie2 = biological target: T2, human Tie2 (Homo sapiens, UniProt Q02763); experiment: test of phosphorylation of PLC with Tie2 (GST-Tie2); type: biochemical; details: Table 1; unit inferred; read-out: Tie2 (concentration that inhibits 50% of the kinase activity)
# T2 construct: amino acids of the intracellular domain 776-1124; made in house; host or cells: baculovirus expression (pFastBacGT)
# T2 sequence (Q02763 776-1124): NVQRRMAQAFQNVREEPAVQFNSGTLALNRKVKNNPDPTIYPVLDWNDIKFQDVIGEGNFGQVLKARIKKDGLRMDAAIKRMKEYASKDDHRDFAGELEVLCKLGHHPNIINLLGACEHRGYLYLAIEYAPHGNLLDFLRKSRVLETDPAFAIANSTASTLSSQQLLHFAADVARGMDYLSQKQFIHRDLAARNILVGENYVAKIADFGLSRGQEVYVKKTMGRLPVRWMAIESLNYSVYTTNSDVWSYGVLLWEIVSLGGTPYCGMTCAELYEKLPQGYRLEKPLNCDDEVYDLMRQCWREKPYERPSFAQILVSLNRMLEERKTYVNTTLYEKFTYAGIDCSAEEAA
# Protocol: The coding sequence of human Tie2 corresponding to the amino acids of the intracellular domain 776-1124 was generated by PCR using the cDNA isolated from a human placenta as a model. This sequence was introduced into a pFastBacGT baculovirus expression vector in the form of a GST fusion protein.
# The inhibitory effect of the molecules is determined in a test of phosphorylation of PLC with Tie2 in the presence of GST-Tie2 purified to about 80% homogeneity. The substrate is composed of the SH2-SH3 fragments of PLC expressed in the form of a GST fusion protein.
# The kinase activity of Tie2 is measured in a MOPS 20 mM pH 7.2 buffer, containing 10 mM MgCl2, 10 mM MnCl2, 1 mM DTT, 10 mM of glycerophosphate. In a 96-well FlashPlate plate maintained on ice, a reaction mixture is deposited, composed of 70 μL of kinase buffer containing 100 ng of enzyme GST-Tie2 per well. Next, 10 μL of the test molecule diluted in DMSO to a maximum concentration of 10% are added. For a given concentration, each measurement is performed four times. The reaction is initiated by adding 20 μl of solution containing 2 μg of GST-PLC, 2 μm of cold ATP and 1 μCi of δ^33P[ATP]. After incubation for one hour at 37° C., the reaction is stopped by adding 1 volume (100 μl) of 200 mM EDTA. After removal of the incubation buffer, the wells are washed three times with 300 μL of PBS. The radioactivity is measured on a MicroBeta 1450 Wallac.
# The inhibition of the Tie2 activity is calculated and expressed as a percentage of inhibition relative to the control activity determined in the absence of compound.
IC50 (human KDR enzyme),IC50 (human Tie2),Structure (SMILES)
4.5 nM,72.7 nM,"NC(=O)c1n[nH]cc1NCc1cccc(NC(=O)Nc2cc(F)cc(C(F)(F)F)c2)c1 [Example 7, 4-{[3-({[3-fluoro-5-(trifluoromethyl)phenyl]carbamoyl}amino)benzyl]-amino}-1H-pyrazole-3-carboxamide trifluoroacetate]"
11.8 nM,1460 nM,"COc1cc(NC(=O)Nc2cccc(CNc3c[nH]nc3C(N)=O)c2)cc(OC)c1 [Example 13, 4-[(3-{[(3,5-dimethoxyphenyl)carbamoyl]amino}benzyl)amino]-1H-pyrazole-3-carboxamide trifluoroacetate]"

# Continued, compound first:
Structure (SMILES),IC50 (human KDR enzyme),IC50 (human Tie2)
"NC(=O)c1n[nH]cc1NCc1cccc(NC(=O)Nc2cc(C(F)(F)F)ccc2F)c1 [Example 2a, 4-{[3-({[2-fluoro-5-(trifluoromethyl)phenyl]carbamoyl}amino)benzyl]-amino}-1H-pyrazole-3-carboxamide trifluoroacetate]",8 nM,20 nM
"COC(=O)c1cccc(NC(=O)Nc2cccc(CNc3c[nH]nc3C(N)=O)c2)c1 [Example 9, Methyl 3-{[(3-{[(3-carbamoyl-1H-pyrazol-4-yl)-amino]methyl}phenyl)-carbamoyl]amino}benzoate trifluoroacetate]",21.8 nM,4510 nM
"COC(=O)c1n[nH]cc1NCc1cccc(NC(=O)Nc2cc(C(F)(F)F)ccc2F)c1 [Example 32, Methyl 4-{[3-({[2-fluoro-5-(trifluoromethyl)phenyl]carbamoyl}amino)-benzyl]amino}-1H-pyrazole-3-carboxylate trifluoroacetate]",64.1 nM,1000 nM

# Source: patent US8420824B2, “Substituted pyrazoles, compositions containing these, method of production and use” (Sanofi, priority 2006, dated 2013)
